Source: ChEMBL document CHEMBL1201862, “PubChem BioAssay data set” (2004)
Values belong to the compound of their own block, whether it stands above or below them. The source made the active and inactive calls.

Tests used:
[1] = tested on: INS1; test: beta cell apoptosis inhibitors, cytokine rescue, dose response, luminescence, retest (AID 449756); type: functional, cell-based; details: Rattus norvegicus;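 note: cell death triggered by IL-1 beta plus TNF-alpha plus IFN-gamma mixture; protective hits raise ATP signal compared with cytokine alone wells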
[2] = target: Cytochrome P450 2C19 (Homo sapiens, UniProt P33261); test: Cytochrome panel assay with activity outcomes. Panel member name: p450-cyp2c19 Compounds with AC50 equal or less than 10 uM are considered active; type: functional; details: read-out: AC50
[3] = target: T1, Cytochrome P450 1A2 (Homo sapiens, UniProt P05177);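 note: PubChem cytochrome P450 panel assay, CYP1A2 panel member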
T1 sequence (P05177 whole entry): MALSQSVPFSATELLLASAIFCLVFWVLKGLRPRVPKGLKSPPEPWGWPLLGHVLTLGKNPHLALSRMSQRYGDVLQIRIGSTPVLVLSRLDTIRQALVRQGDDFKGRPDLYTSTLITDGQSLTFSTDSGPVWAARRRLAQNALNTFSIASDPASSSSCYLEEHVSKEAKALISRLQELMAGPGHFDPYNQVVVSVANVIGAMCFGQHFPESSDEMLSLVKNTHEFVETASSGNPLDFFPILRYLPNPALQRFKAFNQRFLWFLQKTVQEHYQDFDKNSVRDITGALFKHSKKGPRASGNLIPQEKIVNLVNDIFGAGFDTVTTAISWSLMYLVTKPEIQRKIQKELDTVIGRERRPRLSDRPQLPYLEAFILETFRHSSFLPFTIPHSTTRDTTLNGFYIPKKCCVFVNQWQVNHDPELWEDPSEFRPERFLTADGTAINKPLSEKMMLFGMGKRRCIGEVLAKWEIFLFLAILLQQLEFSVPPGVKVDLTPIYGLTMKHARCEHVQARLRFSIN

[4] = target: T2, Corticotropin-releasing factor receptor 2/Corticotropin-releasing factor-binding protein (Homo sapiens, UniProt P24387+Q13324); test: Dose Response confirmation of uHTS hits for small molecule antagonists of the CRF-binding protein and CRF-R2 receptor complex.; type: functional; details: read-out: IC50_Mean
T2 sequence (Q13324 whole entry): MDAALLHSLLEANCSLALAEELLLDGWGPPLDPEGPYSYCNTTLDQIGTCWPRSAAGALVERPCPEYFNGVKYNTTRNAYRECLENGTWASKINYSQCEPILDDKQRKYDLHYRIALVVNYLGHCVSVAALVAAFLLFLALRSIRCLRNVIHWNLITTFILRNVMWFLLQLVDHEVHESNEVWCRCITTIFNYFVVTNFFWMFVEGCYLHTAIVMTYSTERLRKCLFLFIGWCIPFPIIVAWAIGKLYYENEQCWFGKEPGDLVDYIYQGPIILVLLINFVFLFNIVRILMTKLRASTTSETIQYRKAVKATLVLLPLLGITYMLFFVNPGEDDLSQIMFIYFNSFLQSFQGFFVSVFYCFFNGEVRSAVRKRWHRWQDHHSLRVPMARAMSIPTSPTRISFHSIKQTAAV
T2 sequence (P24387 whole entry): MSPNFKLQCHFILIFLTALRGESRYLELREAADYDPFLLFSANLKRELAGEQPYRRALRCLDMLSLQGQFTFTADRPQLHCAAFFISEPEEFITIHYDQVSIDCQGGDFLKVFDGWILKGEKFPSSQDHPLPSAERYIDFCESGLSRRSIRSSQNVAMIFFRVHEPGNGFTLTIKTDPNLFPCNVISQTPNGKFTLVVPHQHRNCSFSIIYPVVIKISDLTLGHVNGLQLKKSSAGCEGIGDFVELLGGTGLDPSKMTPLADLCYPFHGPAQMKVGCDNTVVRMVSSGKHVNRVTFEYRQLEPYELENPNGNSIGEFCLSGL

[5] = target: T2, Corticotropin-releasing factor receptor 2/Corticotropin-releasing factor-binding protein; test: activators of CRF receptor 2 with binding protein – uHTS hits, confirmation (AID 602473); type: functional; details: read-out: EC50_Mean
[6] = target: Cytochrome P450 2D6 (Homo sapiens, UniProt P10635);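 note: CYP2D6 member of a cytochrome P450 panel assay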
[7] = target: Cytochrome P450 2C9 (Homo sapiens, UniProt P11712)
[8] = Luminescence Cell-Based Dose Retest to Confirm Inhibitors of Cancer Stem Cells. [Related pubchem assays (depositor defined):AID2717, AID2721]; type: functional; details: Homo sapiens
[9] = target: Cytochrome P450 3A4 (Homo sapiens, UniProt P08684);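 note: CYP3A4 tested as one member of a cytochrome P450 panel screen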
[10] = tested on: Streptococcus sp. 'group A'; test: growth inhibition of control SK(-) GAS strain, dose response, counter-screen for streptokinase expression inhibitor project, luminescence, kanamycin, BacTiterGlo, confirmation (AID 1900); type: functional, organism-based
[11] = tested on: Streptococcus; test: Group A Streptococcus viability loss, dose response, counter-screen for streptokinase expression inhibitor project, luminescence, BacTiterGlo (AID 1915); type: functional, organism-based;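 note: potency for reduction of bacterial viability or growth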

Sequence of Cytochrome P450 2D6 (P10635 whole entry): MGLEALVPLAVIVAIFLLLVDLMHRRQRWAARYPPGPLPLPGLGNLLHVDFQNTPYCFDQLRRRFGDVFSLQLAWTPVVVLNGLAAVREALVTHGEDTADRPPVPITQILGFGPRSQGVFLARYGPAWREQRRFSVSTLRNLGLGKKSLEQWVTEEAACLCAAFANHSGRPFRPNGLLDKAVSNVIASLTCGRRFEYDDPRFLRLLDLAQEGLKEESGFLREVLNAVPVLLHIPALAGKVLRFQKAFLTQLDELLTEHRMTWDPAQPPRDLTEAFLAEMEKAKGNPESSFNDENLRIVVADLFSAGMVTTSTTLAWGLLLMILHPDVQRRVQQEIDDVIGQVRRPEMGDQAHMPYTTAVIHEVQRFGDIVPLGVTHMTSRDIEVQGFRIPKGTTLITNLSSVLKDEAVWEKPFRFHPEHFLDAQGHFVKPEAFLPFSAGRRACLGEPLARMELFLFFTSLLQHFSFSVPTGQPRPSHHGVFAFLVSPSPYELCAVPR
Sequence of Cytochrome P450 2C19 (P33261 whole entry): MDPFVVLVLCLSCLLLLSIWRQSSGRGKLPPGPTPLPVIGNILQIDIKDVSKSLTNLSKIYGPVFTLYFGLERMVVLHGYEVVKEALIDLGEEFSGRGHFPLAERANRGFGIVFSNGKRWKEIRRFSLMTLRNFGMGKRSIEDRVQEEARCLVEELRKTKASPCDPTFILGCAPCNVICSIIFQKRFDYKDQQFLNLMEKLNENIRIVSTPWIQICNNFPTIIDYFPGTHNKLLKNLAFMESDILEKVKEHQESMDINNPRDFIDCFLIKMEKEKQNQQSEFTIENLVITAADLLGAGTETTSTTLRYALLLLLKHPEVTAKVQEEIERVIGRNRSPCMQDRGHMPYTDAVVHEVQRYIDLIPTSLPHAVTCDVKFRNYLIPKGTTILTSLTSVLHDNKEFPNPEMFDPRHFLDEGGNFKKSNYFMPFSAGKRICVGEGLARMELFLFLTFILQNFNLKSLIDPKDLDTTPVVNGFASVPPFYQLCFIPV
Sequence of Cytochrome P450 2C9 (P11712 whole entry): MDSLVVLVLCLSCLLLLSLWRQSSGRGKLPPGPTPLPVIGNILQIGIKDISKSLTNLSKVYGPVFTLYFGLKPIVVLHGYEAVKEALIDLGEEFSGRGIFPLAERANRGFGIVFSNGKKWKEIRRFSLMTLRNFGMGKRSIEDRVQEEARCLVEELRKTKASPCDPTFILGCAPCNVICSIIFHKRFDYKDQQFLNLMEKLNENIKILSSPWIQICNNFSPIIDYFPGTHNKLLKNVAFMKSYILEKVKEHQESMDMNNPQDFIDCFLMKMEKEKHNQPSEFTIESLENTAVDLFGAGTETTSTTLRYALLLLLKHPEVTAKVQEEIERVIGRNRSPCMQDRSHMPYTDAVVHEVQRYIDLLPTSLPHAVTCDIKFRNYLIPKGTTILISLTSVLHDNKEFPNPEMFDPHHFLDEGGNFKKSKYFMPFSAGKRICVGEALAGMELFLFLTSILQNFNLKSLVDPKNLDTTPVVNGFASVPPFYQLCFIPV
Sequence of Cytochrome P450 3A4 (P08684 whole entry): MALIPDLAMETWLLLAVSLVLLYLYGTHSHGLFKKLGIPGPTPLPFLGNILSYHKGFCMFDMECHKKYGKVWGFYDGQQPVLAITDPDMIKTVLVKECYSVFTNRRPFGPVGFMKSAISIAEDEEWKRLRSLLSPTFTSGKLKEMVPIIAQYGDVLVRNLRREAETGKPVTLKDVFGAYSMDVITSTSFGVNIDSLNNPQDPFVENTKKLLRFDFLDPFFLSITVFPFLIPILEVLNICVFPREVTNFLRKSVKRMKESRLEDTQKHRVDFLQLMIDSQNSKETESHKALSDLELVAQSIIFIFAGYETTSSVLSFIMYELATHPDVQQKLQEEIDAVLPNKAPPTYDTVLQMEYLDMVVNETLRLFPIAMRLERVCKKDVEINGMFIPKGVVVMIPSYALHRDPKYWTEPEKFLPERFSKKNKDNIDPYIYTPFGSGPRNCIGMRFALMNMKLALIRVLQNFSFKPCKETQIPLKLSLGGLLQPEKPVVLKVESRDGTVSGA

Compound: O=C(c1cc(-c2cccc(Cl)c2)nc2ccccc12)N1CCN(c2ccccn2)CC1
AC50 [1]: 14.8 µM (active)

Compound: CC(=O)Oc1ccc(-c2csc(Nc3cccc(C)n3)n2)cc1
AC50 [8]: 6.58 µM (active)

Compound: O=c1cc(N2CCCCC2)c(-c2ccccc2)nn1Cc1ccc(Cl)cc1
AC50 [8]: 2.33 µM (active)

Compound: Cc1ccc(S(=O)(=O)N2CCN(C(=O)COc3ccc(NC(=O)c4ccco4)cc3)CC2)cc1
AC50 [8]: > 195 µM (inactive)

Compound: COc1cc2c(cc1O)[C@H]1Cc3ccc(OC)c(O)c3CN1CC2
AC50 [2]: 7.94 µM (inconclusive) | AC50 [3]: 15.8 µM (inconclusive) | AC50 [9]: 12.6 µM (inconclusive)

Compound: Cc1cccc(-c2cc3nc4c(c(NCc5ccco5)n3n2)CCCC4)c1
AC50 [8]: 7.11 µM (active)

Compound: Cc1c(C(=O)Nc2nc(-c3ccccn3)cs2)oc2ccccc12
AC50 [1]: 5.62 µM (active)

Compound: FC(F)(F)c1cc(CCN2C(S)=NC[C@@H]2CC2CCCCC2)cc(C(F)(F)F)c1
EC50 [10]: 5.13 µM (active) | EC50 [11]: > 150 µM (not active) | AC50 [8]: 5.79 µM (active)

Compound: COC(=O)c1c(NC(=O)C(C)(C)C)sc2c1C(C(=O)OC)CC2 (stereo not given)
AC50 [2]: 14.1 µM (inconclusive) | AC50 [3]: 0.794 µM (inconclusive)

Compound: Nc1ccc(C#Cc2ccc3oc4ccccc4c(=O)c3c2)cc1
EC50 [10]: 2.5 µM (active) | EC50 [11]: 2.37 µM (active)

Compound: O=c1c2ccccc2nc(/C=C/c2ccccc2)n1-c1ccccc1O
AC50 [8]: 4.57 µM (active)

Compound: CCOc1ccc(C(=O)CCC(=O)N2CCN(c3ccc(O)cc3)CC2)cc1
AC50 [8]: 5.57 µM (active)

Compound: CC(C)(C)OC(=O)NCc1ccc(NC(=O)c2[nH]cnc2C(=O)NCCCNC(=O)c2nc[nH]c2C(=O)Nc2ccc(CNC(=O)OC(C)(C)C)cc2)cc1
AC50 [8]: 1.75 µM (active)

Compound: COc1ncnc(OC)c1S(=O)(=O)Nc1ccc(C(F)(F)F)cc1
AC50 [1]: > 260 µM (inactive)

Compound: C=C(CC[C@@H](O)C(C)(C)O)[C@H]1CC[C@]2(C)[C@@H]1CC[C@@H]1[C@@]3(C)CCC(=O)C(C)(C)C3CC[C@]12C (stereo not given in full)
AC50 [8]: 1.75 µM (active)

Next, values leading:

AC50 [2]: 0.631 µM (inconclusive) | AC50 [3]: 3.16 µM (inconclusive)
Compound: O=S(=O)(O)c1ccc2c(/N=N\c3c(O)ccc4ccccc34)cccc2c1

IC50 [4]: > 47.1 µM (inactive) | EC50 [5]: > 53 µM (inactive)
Compound: CCC(CC)NC(=O)CC(c1ccccc1)c1ccccc1

AC50 [6]: 3.16 µM (inconclusive) | AC50 [3]: 5.62 µM (inconclusive)
Compound: O=C(COc1cccc(NC(=O)c2cccc([N+](=O)[O-])c2)c1)c1ccc(Br)cc1

AC50 [3]: 20 µM (inconclusive)
Compound: O=C(CN(C(=O)CSc1nc2ccccc2o1)c1cccc(F)c1)NC1CCCCC1

AC50 [6]: 5.01 µM (inconclusive) | AC50 [3]: 15.8 µM (inconclusive)
Compound: CCC/C=C(\CCC)C(NC(=O)Cc1ccccc1)c1ccc(C(=O)OC)cc1 (stereo not given)

AC50 [6]: 39.8 µM (inconclusive) | AC50 [3]: 6.31 µM (inconclusive) | AC50 [7]: 3.16 µM (inconclusive)
Compound: CCC/C=C(\CCC)C(NS(=O)(=O)c1ccc(-c2ccccc2)cc1)c1ccc(C(=O)OC)cc1 (stereo not given)

AC50 [3]: 8.91 µM (inconclusive)
Compound: COc1cccc(-c2csc(N3CCN(CC(=O)NNC(=O)c4ccc(Cl)cc4)CC3)n2)c1

AC50 [3]: 20 µM (inconclusive)
Compound: COCCn1c(=O)c(-c2ccc(Cl)cc2)nc2cnc(Nc3ccccc3)nc21

IC50 [4]: > 47.1 µM (inactive) | EC50 [5]: > 53 µM (inactive)
Compound: O=C(NCC1CCCO1)c1onc(CSc2cccc3ccccc23)c1C(=O)O (stereo not given)

AC50 [6]: 20 µM (inconclusive) | AC50 [3]: 20 µM (inconclusive)
Compound: O=C(Oc1ccccc1)N1CCC[C@@]2(CCN(c3ccncc3)C2)C1

AC50 [3]: 25.1 µM (inconclusive) | AC50 [7]: 25.1 µM (inconclusive)
Compound: CC(C)(C)OC(=O)NCCc1nnc(SCC(=O)Nc2cccc(Cl)c2)o1

EC50 [5]: > 53 µM (inactive)
Compound: O=C(C1CCCC1)N1CCCC(Nc2ccc(F)cc2)C1 (stereo not given)

EC50 [5]: > 53 µM (inactive)
Compound: C[C@]12c3[nH]c4ccccc4c3CCN1C(=O)C(CC(=O)NCC13C[C@H]4C[C@@H](C1)C[C@@H](C3)C4)C[C@@H]2C(=O)N1CCOCC1 (stereo not given in full)

AC50 [3]: 15.8 µM (inconclusive) | AC50 [9]: 12.6 µM (inconclusive)
Compound: CNCC[C@@H](Oc1ccccc1C)c1ccccc1 [ATOMOXETINE]
